Among the data in PubChem BioAssay AID330 (DTP/NCI, 2004) are T/C values, retold here.

This experiment deals with P388 leukemia ip, CD2F1 mice, survival T/C. The experiment can be described thus: NCI In Vivo Anticancer Drug Screen. Data for tumor model P388 Leukemia (intraperitoneal) in CD2F1 (CDF1) mice. Particulars: endpoint: median survival time, higher = longer survival. In outline:
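Mice carrying the transplanted tumor received test compound or vehicle. Survival was recorded in each group, and the value is the treated-group measurement divided by that of the vehicle-treated control group.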

The mark [1] stands for this setting: dose: 50.0 mg/kg/injection, schedule: Q01DX005 (ip), vehicle: saline with Tween-80.
Where [2] appears, read: dose: 100.0 mg/kg/injection, schedule: Q01DX005 (ip), vehicle: saline with Tween-80.
Setting [3] is: dose: 200.0 mg/kg/injection, schedule: Q01DX005 (ip), vehicle: saline with Tween-80.
The mark [4] stands for this setting: dose: 200.0 mg/kg/injection, schedule: Q01DX005 (ip), vehicle: Klucel (hydroxypropylcellulose) (HPC).
The mark [5] stands for this setting: dose: 100.0 mg/kg/injection, schedule: Q04DX002 (ip), vehicle: saline with Tween-80.

Each structure is given as a SMILES string. Several values for one entry are separate records, joined by “and”; a condition that tells them apart may be missing. Identical values can stand only once. Inconclusive results and toxic doses are left out.

For the compound `CC[n+]1c(-c2ccccc2)c2cc(N)ccc2c2ccc(N)cc21`, the T/C runs as follows: (dose: 0.39 mg/kg/injection, schedule: Q04DX003 (ip), vehicle: saline) 101 % of control; (dose: 0.39 mg/kg/injection, schedule: Q04DX003 (ip), vehicle: water) 103 % of control; (dose: 0.78 mg/kg/injection, schedule: Q04DX003 (ip), vehicle: saline) 100 % of control; (dose: 0.78 mg/kg/injection, schedule: Q04DX003 (ip), vehicle: water) 104 % of control; (dose: 1.56 mg/kg/injection, schedule: Q01DX009 (ip), vehicle: saline) 150 % of control; (dose: 1.56 mg/kg/injection, schedule: Q04DX003 (ip), vehicle: saline) 106 % of control. Besides, the T/C is 113 % of control (dose: 1.56 mg/kg/injection, schedule: Q04DX003 (ip), vehicle: water); 153 % of control (dose: 3.13 mg/kg/injection, schedule: Q01DX009 (ip), vehicle: saline); 161 % of control (dose: 3.13 mg/kg/injection, schedule: Q01DX009 (ip), vehicle: water); 114 % of control (dose: 3.13 mg/kg/injection, schedule: Q04DX003 (ip), vehicle: saline); 123 % of control (dose: 3.13 mg/kg/injection, schedule: Q04DX003 (ip), vehicle: water); 170 % of control (dose: 6.25 mg/kg/injection, schedule: Q01DX009 (ip), vehicle: saline). The T/C runs as follows: (dose: 18.0 mg/kg/injection, schedule: Q04DX003 (ip), vehicle: saline sonified) 150 % of control; (dose: 25.0 mg/kg/injection, schedule: Q04DX003 (ip), vehicle: saline) 117 % of control; (dose: 27.0 mg/kg/injection, schedule: Q04DX003 (ip), vehicle: saline sonified) 109 % of control.

On to `O=C1CSC(c2ccc(F)c(F)c2)N1c1nncs1` (centres undefined), for which the T/C was 99 % of control (dose: 60.0 mg/kg/injection, schedule: Q01DX005 (ip), vehicle: saline with Tween-80); 101 % of control (dose: 120.0 mg/kg/injection, schedule: Q01DX005 (ip), vehicle: saline with Tween-80); 101 % of control (dose: 240.0 mg/kg/injection, schedule: Q01DX005 (ip), vehicle: saline with Tween-80).

As for `COc1ccc(S(=O)(=O)N/N=C\c2cc([N+](=O)[O-])ccc2O)cc1OC`, the T/C was 109 % of control under setting [1], 109 % of control under setting [2] and 100 % of control under setting [3].

For `CSC1=NN(C(C)=O)C(c2ccccn2)S1` (centres undefined), the T/C runs as follows: (dose: 50.0 mg/kg/injection, schedule: Q01DX005 (ip), vehicle: Klucel (hydroxypropylcellulose) (HPC)) 100 % of control; (dose: 100.0 mg/kg/injection, schedule: Q01DX005 (ip), vehicle: Klucel (hydroxypropylcellulose) (HPC)) 100 % of control; under setting [4], 101 % of control.

In the case of `O=C(O)C1CSC2(CCCCC2)N1` (centres undefined), the T/C is 104 % of control (dose: 50.0 mg/kg/injection, schedule: Q04DX003 (ip), vehicle: saline); 95 % of control (dose: 100.0 mg/kg/injection, schedule: Q04DX003 (ip), vehicle: saline); 99 % of control (dose: 200.0 mg/kg/injection, schedule: Q04DX003 (ip), vehicle: saline); 96 % of control (dose: 400.0 mg/kg/injection, schedule: Q04DX003 (ip), vehicle: saline).

As to `COC(=O)c1nc(N)nc(C(=O)OC)c1C(=O)c1ccccc1`, the T/C reads like this: (dose: 60.0 mg/kg/injection, schedule: Q01DX005 (ip), vehicle: Klucel (hydroxypropylcellulose) (HPC)) 100 % of control; (dose: 120.0 mg/kg/injection, schedule: Q01DX005 (ip), vehicle: Klucel (hydroxypropylcellulose) (HPC)) 93 % of control.

As for `C=CC(C)(CCC1C(C)=CCC2C(C)(C)CCCC12C)OC1OC(C)C(O)C(O)C1O` (centres undefined), the T/C (dose: 19.0 mg/kg/injection, schedule: Q01DX005 (ip), vehicle: Klucel (hydroxypropylcellulose) (HPC)) was 102 % of control; the T/C (dose: 20.0 mg/kg/injection, schedule: Q01DX005 (ip), vehicle: Klucel (hydroxypropylcellulose) (HPC)) is 97 % of control; the T/C (dose: 21.0 mg/kg/injection, schedule: Q01DX005 (ip), vehicle: Klucel (hydroxypropylcellulose) (HPC)) is 100 % of control; the T/C (dose: 38.0 mg/kg/injection, schedule: Q01DX005 (ip), vehicle: Klucel (hydroxypropylcellulose) (HPC)) is 101 % of control; the T/C (dose: 40.0 mg/kg/injection, schedule: Q01DX005 (ip), vehicle: Klucel (hydroxypropylcellulose) (HPC)) is 103 % of control; the T/C (dose: 42.0 mg/kg/injection, schedule: Q01DX005 (ip), vehicle: Klucel (hydroxypropylcellulose) (HPC)) was 98 % of control. The T/C (dose: 76.0 mg/kg/injection, schedule: Q01DX005 (ip), vehicle: Klucel (hydroxypropylcellulose) (HPC)) is 98 % of control; the T/C (dose: 80.0 mg/kg/injection, schedule: Q01DX005 (ip), vehicle: Klucel (hydroxypropylcellulose) (HPC)) was 98 % of control; the T/C (dose: 84.0 mg/kg/injection, schedule: Q01DX005 (ip), vehicle: Klucel (hydroxypropylcellulose) (HPC)) is 102 % of control; the T/C (dose: 152.0 mg/kg/injection, schedule: Q01DX005 (ip), vehicle: Klucel (hydroxypropylcellulose) (HPC)) was 108 % of control; the T/C (dose: 160.0 mg/kg/injection, schedule: Q01DX005 (ip), vehicle: Klucel (hydroxypropylcellulose) (HPC)) was 93 % of control; the T/C (dose: 168.0 mg/kg/injection, schedule: Q01DX005 (ip), vehicle: Klucel (hydroxypropylcellulose) (HPC)) is 98 % of control.

In the case of `CCC(C)C(NC(=O)C(CCCCN)N(C(=O)OCc1ccccc1)C(=O)OCc1ccccc1)C(=O)O` (centres undefined), the T/C runs as follows: under setting [1], 99 % of control; under setting [2], 90 % of control; under setting [3], 94 % of control.

As to `CCN1C(=O)CCN(S(=O)(=O)c2ccc(-n3nc(C)cc3C)cc2)C1=S`, the T/C was 99 % of control under setting [1], 95 % of control under setting [2] and 103 % of control under setting [3].

As to `NC(=S)N/N=C1/C(=O)N(c2ccc(S(N)(=O)=O)cc2)C(=O)C1C(=O)Nc1ccc(S(N)(=O)=O)cc1` (centres undefined), the T/C is 104 % of control (dose: 25.0 mg/kg/injection, schedule: Q04DX002 (ip), vehicle: saline with Tween-80); 100 % of control (dose: 50.0 mg/kg/injection, schedule: Q04DX002 (ip), vehicle: saline with Tween-80); 99 % of control and 100 % of control under setting [5].

For `COC1OCN(C(C)(C)C)CC1(C)C` (centres undefined), the T/C (dose: 15.0 mg/kg/injection, schedule: Q01DX009 (ip), vehicle: saline with Tween-80) is 95 % of control; the T/C (dose: 30.0 mg/kg/injection, schedule: Q01DX009 (ip), vehicle: saline with Tween-80) was 102 % of control; the T/C (dose: 60.0 mg/kg/injection, schedule: Q01DX009 (ip), vehicle: saline with Tween-80) was 121 % of control.

On to `[C-]#[N+]C1CCCCC1.[C-]#[N+]C1CCCCC1.[Ni].[S-]c1ccccc1.[S-]c1ccccc1`, for which the T/C is, setting by setting: (dose: 25.0 mg/kg/injection, schedule: Q04DX003 (ip), vehicle: saline with Tween-80) 89 % of control; (dose: 50.0 mg/kg/injection, schedule: Q04DX003 (ip), vehicle: saline with Tween-80) 91 % of control; (dose: 100.0 mg/kg/injection, schedule: Q04DX003 (ip), vehicle: saline with Tween-80) 89 % of control and 93 % of control.

Turning to `CC(C)N1CC(=O)N2CSCC2C1=O` (centres undefined), the T/C is 105 % of control (dose: 60.0 mg/kg/injection, schedule: Q01DX005 (ip), vehicle: saline); 105 % of control (dose: 120.0 mg/kg/injection, schedule: Q01DX005 (ip), vehicle: saline); 105 % of control (dose: 240.0 mg/kg/injection, schedule: Q01DX005 (ip), vehicle: saline).

For the compound `Cc1cn(CCCCCCCCCCCCOc2c3occc3cc3ccc(=O)oc23)c(=O)[nH]c1=O`, the T/C (dose: 50.0 mg/kg/injection, schedule: Q04DX002 (ip), vehicle: Klucel (hydroxypropylcellulose) (HPC)) was 96 % of control; the T/C (dose: 100.0 mg/kg/injection, schedule: Q04DX002 (ip), vehicle: Klucel (hydroxypropylcellulose) (HPC)) is 98 % of control; the T/C under setting [4] is 92 % of control; the T/C (dose: 200.0 mg/kg/injection, schedule: Q04DX002 (ip), vehicle: Klucel (hydroxypropylcellulose) (HPC)) was 95 % of control.

As to `N=C(N)c1ccc(/C=C/c2ccc(C(=N)N)cc2O)cc1`, the T/C runs as follows: (dose: 12.5 mg/kg/injection, schedule: Q01DX009 (ip), vehicle: water) 111 % of control; (dose: 22.0 mg/kg/injection, schedule: Q01DX009 (ip), vehicle: water) 120 % of control; (dose: 25.0 mg/kg/injection, schedule: Q01DX009 (ip), vehicle: water) 120 % of control.

Turning to `CC1(Cc2ccccc2)N=C1c1ccccc1` (centres undefined), the T/C under setting [5] is 106 % of control and the T/C (dose: 200.0 mg/kg/injection, schedule: Q04DX002 (ip), vehicle: saline with Tween-80) was 103 % of control.
